Data reported in patent US6720136B2, “Solid phase quenching systems” (V. I Technologies, Inc., priority 1998, dated 2004).

Test: Quenching of ethyleneimine dimer in whole CPD human blood, EID concentration in plasma and RBC fractions by HPLC
Procedure: 50 μl of 120 mM ethyleneimine dimer (EID, PEN102) in 0.25 M NaH2PO4 was added to 0.9 ml of whole human CPD blood (final concentration of EID was 6 mM, 6 μmole total), and incubated at 23° C. for 4 hours. At the end of the 4-hour incubation period, 68 mg (50 μmole-equivalents of phosphothiomonoester groups) of ArgoPore-Thiophosphate support (prepared as described in Example 2) was added. In the parallel experiment, 50 μl of 1 M Na2S2O3 (final concentration 50 mM) was added to same amount of EID treated blood. Both samples were allowed to incubate for 2 hours at 23° C. The red blood cell (RBC) and plasma fraction of the blood were separated by centrifugation (10,000 rpm, 5 min), and the RBCs were opened by adding 9 volumes of water. The concentration of EID was determined in the RBC fraction and in the plasma fraction of the blood by HPLC (FIG. 6).

Structure (SMILES): O=S(O)(O)=S [sodium thiosulfate]
- concentration of ethyleneimine dimer in plasma fraction after quenching (6 mM EID for 4 hours at 23° C., then quencher (50 μmole-equivalents support or 50 mM Na2S2O3) for 2 hours at 23° C., plasma): 6.8 µg/mL
- concentration of ethyleneimine dimer in red blood cell fraction after quenching (6 mM EID for 4 hours at 23° C., then quencher (50 μmole-equivalents support or 50 mM Na2S2O3) for 2 hours at 23° C., red blood cells): 2.2 µg/mL
- quenching of ethyleneimine dimer in blood (in words) (6 mM EID, quencher 2 hours at 23° C.): capable of quenching ethyleneimine dimer
